{"source": "patent US20140328840A1", "about": "“MARKER AND TARGET FOR RESPONSIVENESS AND RESISTANCE TO CANCER AGENTS” (The Provost, Fellows, Foundation Scholars, and the Other …, priority 2011, published 2014)", "key": {"[1]": {"system": "HER2", "assay": "Exogenous NmU treatment, HER2 expression", "type": "cell-based", "conditions": "1 μM, 24-48 hours; SKBR3 and HCC1954 cells", "procedure": "(§1) To assess if functional NmU receptors are expressed on cells, SKBR3 and HCC1954, (1×10^6 cells) were seeded in 25 cm^2 flask, allowed attach overnight and subsequently treated with 1 μM of NmU-25 (Bachem, Switzerland) for 24-48 hours.\n(§2) Total cellular proteins (30-40 μg, depending on the specific protein's abundance; but constant for any given protein) were resolved on 6-10% SDS-PAGE and transferred to PVDF membranes (Millipore, Ireland). Primary antibodies used included EGFR (Neomarker); HER2 (Calbiochem); Akt, p-Akt (Cell Signalling); NmU-R1 (Sigma-Aldrich); NmU-R2 (LifeSpan Biosciences); β-actin (Sigma-Aldrich). Membranes were incubated with appropriate horseradish peroxidase-conjugated secondary antibodies (Cell Signalling) and proteins were visualized by chemiluminescence (Millipore). Detection was performed with a Chemidoc exposure system (Bio-Rad Laboratories). ELISA kit for NmU (Peninsula Laboratories, US), HER2 (Calbiochem, US), p-HER2, EGFR, p-EGFR (R&D Systems, US) were used according to the manufacturer's instructions."}, "[2]": {"system": "EGFR", "assay": "Exogenous NmU treatment, EGFR expression", "type": "cell-based", "conditions": "1 μM, 24-48 hours", "procedure": "as §1, §2"}, "[3]": {"system": "NmU mRNA in HCC1954 cells", "assay": "Short-term drug exposure, qPCR of NmU mRNA in conditioned medium and cells", "type": "cell-based", "conditions": "48 hours; for induced NmU mRNA in CM / induced NmU mRNA in cells: HCC1954, 0.5 μM, vs untreated control", "procedure": "(§3) Conditioned medium (CM) was collected, centrifuged and filtered, as previously described (1-2), prior to NmU mRNA and protein analysis.\n(§4) Total RNA was isolated from cell lines and CM using TriReagent (Sigma-Aldrich). In order to remove any potential contaminating genomic DNA, RNA was treated with DNase enzymes and minus reverse transcriptase enzyme controls verified no DNA/pseudogene contamination of starting material. cDNA was prepared from 500ng cell-derived and 4 μl CM-derived total RNA, respectively."}, "[4]": {"system": "HCC1954-NmU cells", "assay": "Proliferation assay, NmU cDNA- versus mock-transfected cells", "type": "cell-based", "conditions": "HCC1954-NmU vs HCC1954-mock", "procedure": "(§5) Two siRNAs, designated NmU-1 (SEQ ID NO: 3; 5′-[…]-3′) and NmU-2 (SEQ ID NO: 4; 5′-[…]-3′) (s225456 and s21351, respectively, Ambion, UK), (30 nM) were used to target NmU. Scrambled siRNA (SCR) (AM4611, Ambion, UK) was used as negative control. Transient transfections were harvested 72 hours post-transfection for RNA and protein extraction. NmU full-length cDNA was sub-cloned from pOTB7 (clone ID3502168, Open Biosystems, Ireland) by PCR into pcDNA 3.1(+) zeo-plasmid vector (Invitrogen, Ireland). The construct was verified by DNA sequencing. Mock controls used were of pcDNA3.1(+) plasmid lacking NmU cDNA. Lipofectamine 2000 (Invitrogen, Ireland) was used for transfection following the manufacturer's instructions. Stable transfectants were established by selecting with zeocin (50 μg/ml and 300 μg/ml for HCC1954 and SKBR3 transfected cells, respectively; based on initial assessment of the toxicity of zeocin on these cells) (Invitrogen, Ireland).\n(§6) Cells with acquired-resistance compared to aged-parent cells and NmU cDNA-versus mock-transfected cells (HCC1954 variants, 2×10^3 cells/well; SKBR3 variants, 5×10^3 cells/well) were seeded for 24 hours prior to drug additions. […] Five days later, acid phosphatase assay was performed as previously detailed (3)."}, "[5]": {"system": "SKBR3-NmU cells", "assay": "Proliferation assay, NmU cDNA- versus mock-transfected cells", "type": "cell-based", "conditions": "SKBR3-NmU vs SKBR3-mock", "procedure": "as §5, §6"}, "[6]": {"system": "SKBR3-LR, HCC1954-LR, T47D and MDA-MB-361 cells", "assay": "Effects of NmU siRNAs with HER-targeted drugs on proliferation (acid phosphatase)", "type": "cell-based", "procedure": "as §5\n(§7) To investigate if knock-down of NmU affected response to HER-targeting, cell lines with acquired Lapatinib-resistance (SKBR3-LR, HCC1954-LR) and innately unresponsive (MDA-MB-361, T47D) were assessed. […] Similarly, fixed concentrations of Neratinib (1 μM) and Afatinib (0.5 μM) were used. These were cultured for 72 hours and subsequently assessed using acid phosphate analysis."}, "[7]": {"system": "HCC1954 cells", "assay": "Resistance to HER-targeted drugs after exogenous NmU treatment", "type": "cell-based", "conditions": "HCC1954, exogenous NmU (NmU-25) 48 hours; all drugs", "procedure": "as §1"}, "[8]": {"system": "SKBR3-LR cells", "assay": "Proliferation assay (acid phosphatase), Lapatinib-resistant SKBR3", "type": "cell-based", "procedure": "(§8) SKBR3, HCC1954, MDA-MB-361, T47D cells, obtained from ATCC, were cultured in RPMI-1640 (Sigma-Aldrich) with 10% FCS (PAA) and 1% L-glutamine. […] Lapatinib-resistant SKBR3 and HCC1954 cells (SKBR3-LR, HCC1954-LR) were established by continuously exposing cells to Lapatinib, starting with 5 nM and incrementally increasing to 250 nM over 6 months. Neratinib-resistant SKBR3 and HCC1954 cells (SKBR3-NR, HCC1954-NR) resulted from continuously exposing cells to Neratinib, starting with 10 nM and incrementally increasing to 250 nM over 6 months.\nas §6"}, "[9]": {"system": "SKBR3-Ag cells", "assay": "Proliferation assay (acid phosphatase), aged parent SKBR3", "type": "cell-based", "conditions": "Homo sapiens, SK-BR-3, 120 h, read-out: concentration that inhibits 50% of proliferation (IC50), five days", "procedure": "as §8, §6"}, "[10]": {"system": "HCC1954-LR cells", "assay": "Proliferation assay (acid phosphatase), Lapatinib-resistant HCC1954", "type": "cell-based", "procedure": "as §8, §6"}, "[11]": {"system": "HCC1954-Ag cells", "assay": "Proliferation assay (acid phosphatase), aged parent HCC1954", "type": "cell-based", "conditions": "Homo sapiens, 120 h, read-out: concentration that inhibits 50% of proliferation (IC50), five days", "procedure": "as §8, §6"}, "[12]": {"system": "MDA-MB-361 cells", "assay": "Proliferation, previously determined IC50", "type": "cell-based", "conditions": "Homo sapiens; MDA-MB-361, previously determined; read-out: approximate IC50 concentration", "procedure": "as §7"}, "[13]": {"system": "T47D cells", "assay": "Proliferation, previously determined IC50", "type": "cell-based", "conditions": "Homo sapiens, read-out: approximate IC50 concentration", "procedure": "as §7"}, "[14]": {"system": "NmU mRNA in SKBR3 cells", "assay": "Short-term drug exposure, qPCR of NmU mRNA in conditioned medium and cells", "type": "cell-based", "conditions": "SKBR3, 1 μM, 48 hours, vs untreated control CM", "procedure": "as §3, §4"}, "[15]": {"system": "SKBR3 cells", "conditions": "cited from earlier work"}, "[16]": {"system": "HCC1954 cells", "conditions": "cited from earlier work"}, "[17]": {"system": "MDA-MB-361", "conditions": "cited from earlier work"}, "[18]": {"system": "T47D", "conditions": "cited from earlier work"}}}
{"compound": "NmU-25: exogenous NeuromedinU 25 amino acid active peptide (Bachem) (FRVDEEFQSPFASQSRGYFLFRPRN)", "values": [{"measurement": "expression of HER2 protein", "setting": "[1]", "value": "induced expression"}, {"measurement": "expression of EGFR protein", "setting": "[2]; SKBR3 and HCC1954 cells", "value": "induced expression"}, {"measurement": "pEGFR", "setting": "[2]; SKBR3 cells", "value": "induced expression"}]}
{"compound": "CCOc1cc2ncc(C#N)c(Nc3ccc(OCc4ccccn4)c(Cl)c3)c2cc1NC(=O)/C=C/CN(C)C", "note": "[Neratinib]", "values": [{"measurement": "induced NmU mRNA in CM", "setting": "[3]", "value": "3.6±1", "unit": "fold"}, {"measurement": "induced NmU mRNA in cells", "setting": "[3]", "value": "3.6±0.54", "unit": "fold"}, {"measurement": "anti-proliferative effects in NmU-transfected compared to mock-transfected cells", "setting": "[4]", "value": "significantly compromised"}, {"measurement": "anti-proliferative effects in NmU-transfected compared to mock-transfected cells", "setting": "[5]", "value": "significantly compromised"}, {"measurement": "inhibition at 1 µM", "setting": "[6]; 72 h, read-out: further inhibition of growth with NmU knock-down", "value": "19 to 58", "unit": "%"}, {"measurement": "level of resistance induced by exogenous NmU", "setting": "[7]", "value": 1.1, "unit": "fold"}]}
{"compound": "CS(=O)(=O)CCNCc1ccc(-c2ccc3ncnc(Nc4ccc(OCc5cccc(F)c5)c(Cl)c4)c3c2)o1", "note": "[Lapatinib]", "values": [{"measurement": "IC50", "setting": "[8]; Homo sapiens, SK-BR-3, 120 h, read-out: concentration that inhibits 50% of proliferation (IC50), SKBR3-LR, five days", "value": "~3000", "unit": "nM"}, {"measurement": "fold resistance", "setting": "[8]; SKBR3-LR in relation to SKBR3-Ag", "value": "29.8±2.2", "unit": "fold"}, {"measurement": "IC50", "setting": "[9]", "value": 90, "unit": "nM"}, {"measurement": "fold resistance", "setting": "[10]; HCC1954-LR compared to HCC1954-Ag", "value": "19.1±2.8", "unit": "fold"}, {"measurement": "IC50", "setting": "[10]; Homo sapiens, HCC1954, 120 h, read-out: concentration that inhibits 50% of proliferation (IC50), HCC1954-LR, five days", "value": "~5", "unit": "µM"}, {"measurement": "IC50", "setting": "[11]", "value": 300, "unit": "nM"}, {"measurement": "IC50", "setting": "[12]", "value": "~1000", "unit": "nM"}, {"measurement": "IC50", "setting": "[13]", "value": "~5", "unit": "µM"}, {"measurement": "levels of NmU mRNA detectable in CM", "setting": "[3]; HCC1954, 1 μM, vs untreated control CM", "value": "significantly higher"}, {"measurement": "levels of NmU mRNA detectable in CM", "setting": "[14]", "value": "significantly higher"}, {"measurement": "anti-proliferative effects in NmU-transfected compared to mock-transfected cells", "setting": "[4]", "value": "significantly compromised"}, {"measurement": "anti-proliferative effects in NmU-transfected compared to mock-transfected cells", "setting": "[5]", "value": "significantly compromised"}, {"measurement": "further inhibition of proliferation with NmU knock-down", "setting": "[6]; drug at IC50 concentration, 72 hours, NmU-1/NmU-2 siRNA vs SCR, range over cell lines and siRNAs", "value": "12-49%"}, {"measurement": "level of resistance induced by exogenous NmU", "setting": "[7]", "value": 1.1, "unit": "fold"}, {"measurement": "innate sensitivity/resistance", "setting": "[15]", "value": "sensitive"}, {"measurement": "innate sensitivity/resistance", "setting": "[16]", "value": "sensitive"}, {"measurement": "innate sensitivity/resistance", "setting": "[17]", "value": "resistant"}, {"measurement": "innate sensitivity/resistance", "setting": "[18]", "value": "unresponsive"}]}
{"compound": "CN(C)C/C=C/C(=O)Nc1cc2c(Nc3ccc(F)c(Cl)c3)ncnc2cc1O[C@H]1CCOC1", "note": "[Afatinib]", "values": [{"measurement": "induced NmU mRNA in CM", "setting": "[3]", "value": "3.3±0.49", "unit": "fold"}, {"measurement": "induced NmU mRNA in cells", "setting": "[3]", "value": "3±0.38", "unit": "fold"}, {"measurement": "inhibition at 0.5 µM", "setting": "[6]; 0.5 μM, 72 hours, NmU-1/NmU-2 siRNA vs SCR, range over cell lines and siRNAs, read-out: further inhibition of growth with NmU knock-down", "value": "18 to 47", "unit": "%"}, {"measurement": "level of resistance induced by exogenous NmU", "setting": "[7]", "value": 1.1, "unit": "fold"}]}
